Laboratory results published in article PMC5668067, “Phase I dose-escalation study of the c-Met tyrosine kinase inhibitor SAR125844 in Asian patients with advanced solid tumors, including patients with MET-amplified gastric cancer” (Oncotarget, 2017).

Columns and labels:
c-Met kinase = molecular target: c-Met kinase; design: method as in PMID 25504634; settings: cited from earlier work
[1] = tested on: Asian patients with solid tumors; assay: phase I safety: treatment-emergent adverse events (NCI CTCAE v4.03), safety population; assay type: in vivo
Procedure: SAR was administered by weekly intravenous infusion on days 1, 8, 15, and 22 of each 28–day cycle. The starting dose was 260 mg/m^2, and dose increments of 30% were made, to a maximum of 570 mg/m^2. Treatment continued until disease progression, unacceptable toxicity, or consent withdrawal. Patients were screened within 21 days before the first administration and followed for 30 days after the last administration.
The safety population consisted of all patients exposed to SAR, regardless of the amount of treatment administered.

[2] = dose-escalation cohort, 260 mg/m^2 (N = 6)
[3] = dose-escalation cohort, 340 mg/m^2 (N = 4)
[4] = dose-escalation cohort, 440 mg/m^2 (N = 3)
[5] = dose-escalation cohort, 570 mg/m^2 (N = 6)
[6] = dose-expansion cohort, All (N = 19)
[7] = dose-expansion cohort, GC (N = 14)

O=C(NCCN1CCOCC1)Nc1nc2ccc(Sc3nnc4ccc(-c5ccc(F)cc5)nn34)cc2s1 [SAR125844]
IC50 (c-Met kinase; read-out: half-maximal inhibitory concentration): 4.2 nM | Ki (c-Met kinase; read-out: inhibitory constant): 2.8 nM | patients who discontinued treatment because of a TEAE ([1]; TEAE considered unrelated to the study drug): One | TEAE Abdominal pains ([1]; Total (N = 38)): 8 (21.1) n (%) | TEAE Back pain ([1]; Total (N = 38)): 5 (13.2) n (%) | TEAE Cancer pain ([1]; Total (N = 38)): 4 (10.5) n (%) | TEAE Constipation ([1]; Total (N = 38)): 8 (21.1) n (%) | TEAE Cough ([1]; Total (N = 38)): 4 (10.5) n (%) | TEAE Decreased appetite ([1]; Total (N = 38)): 11 (28.9) n (%) | TEAE Diarrhea ([1]; Total (N = 38)): 5 (13.2) n (%) | TEAE Edema, peripheral ([1]; Total (N = 38)): 4 (10.5) n (%) | TEAE Fatigue/asthenia ([1]; Total (N = 38)): 8 (21.1) n (%) | TEAE Injection site reaction/phlebitis ([1]; Total (N = 38)): 7 (18.4) n (%) | TEAE Insomnia ([1]; Total (N = 38)): 4 (10.5) n (%) | TEAE Nausea ([1]; Total (N = 38)): 14 (36.8) n (%) | TEAE Pyrexia ([1]; Total (N = 38)): 7 (18.4) n (%) | TEAE Rash ([1]; Total (N = 38)): 4 (10.5) n (%) | TEAE Vomiting ([1]; Total (N = 38)): 13 (34.2) n (%) | deaths due to adverse events ([1]; all patients (N = 38)): no deaths | frequency of abdominal pains ([1]; all patients (N = 38)): 21.1% | frequency of constipation ([1]; all patients (N = 38)): 21.1% | frequency of decreased appetite ([1]; all patients (N = 38)): 28.9% | frequency of fatigue or asthenia ([1]; all patients (N = 38)): 21.1% | frequency of nausea ([1]; all patients (N = 38)): 36.8% | frequency of vomiting ([1]; all patients (N = 38)): 34.2% | patients with at least one dose modification ([1]; all patients (N = 38)): Nine | patients with drug-related Grade ≥ 3 AEs ([1]; all patients (N = 38)): 7.9% | patients with infusion interrupted because of a grade 2 infusion-related reaction ([1]; all patients (N = 38)): one | patients with study-drug related Grade ≥ 3 TEAEs ([1]; all patients (N = 38)): three | serious TEAEs considered study-drug related ([1]; all patients (N = 38)): none | patients with Grade ≥ 3 TEAEs ([1]; all patients (N = 38), 15 patients): 39.5% | patients with study-drug related TEAEs ([1]; all patients (N = 38), 22 patients): 57.9% | patients with TEAEs ([1]; all patients (N = 38), 36 patients): 94.7% | patients with serious TEAEs ([1]; all patients (N = 38), eight patients): 21.1% | TEAE Abdominal pains [1, 2]: 1 (16.7) n (%) | TEAE Back pain [1, 2]: 3 (50.0) n (%) | TEAE Cancer pain [1, 2]: 0 (0) n (%) | TEAE Constipation [1, 2]: 2 (33.3) n (%) | TEAE Cough [1, 2]: 2 (33.3) n (%) | TEAE Decreased appetite [1, 2]: 1 (16.7) n (%) | TEAE Diarrhea [1, 2]: 0 (0) n (%) | TEAE Edema, peripheral [1, 2]: 0 (0) n (%) | TEAE Fatigue/asthenia [1, 2]: 3 (50) n (%) | TEAE Injection site reaction/phlebitis [1, 2]: 1 (16.7) n (%) | TEAE Insomnia [1, 2]: 1 (16.7) n (%) | TEAE Nausea [1, 2]: 1 (16.7) n (%) | TEAE Pyrexia [1, 2]: 4 (66.7) n (%) | TEAE Rash [1, 2]: 2 (33.3) n (%) | TEAE Vomiting [1, 2]: 1 (16.7) n (%) | TEAE Abdominal pains [1, 3]: 0 (0) n (%) | TEAE Back pain [1, 3]: 0 (0) n (%) | TEAE Cancer pain [1, 3]: 0 (0) n (%) | TEAE Constipation [1, 3]: 0 (0) n (%) | TEAE Cough [1, 3]: 1 (25.0) n (%) | TEAE Decreased appetite [1, 3]: 1 (25.0) n (%) | TEAE Diarrhea [1, 3]: 0 (0) n (%) | TEAE Edema, peripheral [1, 3]: 0 (0) n (%) | TEAE Fatigue/asthenia [1, 3]: 0 (0) n (%) | TEAE Injection site reaction/phlebitis [1, 3]: 0 (0) n (%) | TEAE Insomnia [1, 3]: 0 (0) n (%) | TEAE Nausea [1, 3]: 2 (50) n (%) | TEAE Pyrexia [1, 3]: 0 (0) n (%) | TEAE Rash [1, 3]: 1 (25.0) n (%) | TEAE Vomiting [1, 3]: 1 (25.0) n (%) | TEAE Abdominal pains [1, 4]: 1 (33.3) n (%) | TEAE Back pain [1, 4]: 0 (0) n (%) | TEAE Cancer pain [1, 4]: 1 (33.3) n (%) | TEAE Constipation [1, 4]: 1 (33.3) n (%) | TEAE Cough [1, 4]: 0 (0) n (%) | TEAE Decreased appetite [1, 4]: 1 (33.3) n (%) | TEAE Diarrhea [1, 4]: 0 (0) n (%) | TEAE Edema, peripheral [1, 4]: 0 (0) n (%) | TEAE Fatigue/asthenia [1, 4]: 1 (33.3) n (%) | TEAE Injection site reaction/phlebitis [1, 4]: 0 (0) n (%) | TEAE Insomnia [1, 4]: 0 (0) n (%) | TEAE Nausea [1, 4]: 0 (0) n (%) | TEAE Pyrexia [1, 4]: 0 (0) n (%) | TEAE Rash [1, 4]: 0 (0) n (%) | TEAE Vomiting [1, 4]: 0 (0) n (%) | TEAE Abdominal pains [1, 5]: 0 (0) n (%) | TEAE Back pain [1, 5]: 0 (0) n (%) | TEAE Cancer pain [1, 5]: 2 (33.3) n (%) | TEAE Constipation [1, 5]: 1 (16.7) n (%) | TEAE Cough [1, 5]: 0 (0) n (%) | TEAE Decreased appetite [1, 5]: 0 (0) n (%) | TEAE Diarrhea [1, 5]: 0 (0) n (%) | TEAE Edema, peripheral [1, 5]: 1 (16.7) n (%) | TEAE Fatigue/asthenia [1, 5]: 0 (0) n (%) | TEAE Injection site reaction/phlebitis [1, 5]: 1 (16.7) n (%) | TEAE Insomnia [1, 5]: 0 (0) n (%) | TEAE Nausea [1, 5]: 3 (50) n (%) | TEAE Pyrexia [1, 5]: 0 (0) n (%) | TEAE Rash [1, 5]: 0 (0) n (%) | TEAE Vomiting [1, 5]: 1 (16.7) n (%) | TEAE Back pain [1, 6]: 2 (10.5) n (%) | TEAE Cancer pain [1, 6]: 1 (5.3) n (%) | TEAE Constipation [1, 6]: 4 (21.1) n (%) | TEAE Cough [1, 6]: 1 (5.3) n (%) | TEAE Decreased appetite [1, 6]: 8 (42.1) n (%) | TEAE Diarrhea [1, 6]: 5 (26.3) n (%) | TEAE Edema, peripheral [1, 6]: 3 (15.8) n (%) | TEAE Fatigue/asthenia [1, 6]: 4 (21.1) n (%) | TEAE Injection site reaction/phlebitis [1, 6]: 5 (26.3) n (%) | TEAE Insomnia [1, 6]: 3 (15.8) n (%) | TEAE Nausea [1, 6]: 8 (42.1) n (%) | TEAE Pyrexia [1, 6]: 3 (15.8) n (%) | TEAE Rash [1, 6]: 1 (5.3) n (%) | TEAE Vomiting [1, 6]: 10 (52.6) n (%) | TEAE Abdominal pains [1, 7]: 2 (14.3) n (%) | TEAE Back pain [1, 7]: 2 (14.3) n (%) | TEAE Cancer pain [1, 7]: 1 (7.1) n (%) | TEAE Constipation [1, 7]: 2 (14.3) n (%) | TEAE Cough [1, 7]: 1 (7.1) n (%) | TEAE Decreased appetite [1, 7]: 5 (35.7) n (%) | TEAE Diarrhea [1, 7]: 4 (28.6) n (%) | TEAE Edema, peripheral [1, 7]: 2 (14.3) n (%) | TEAE Fatigue/asthenia [1, 7]: 2 (14.3) n (%) | TEAE Injection site reaction/phlebitis [1, 7]: 4 (28.6) n (%) | TEAE Insomnia [1, 7]: 2 (14.3) n (%) | TEAE Nausea [1, 7]: 4 (28.6) n (%) | TEAE Pyrexia [1, 7]: 1 (7.1) n (%) | TEAE Rash [1, 7]: 1 (7.1) n (%) | TEAE Vomiting [1, 7]: 6 (42.9) n (%) | cases of transaminase increase (grade ≥ 3) leading to dose modification ([1]; laboratory findings): Two
